Results as given in patent US11827637B2, “Azaindole derivatives and their use as ERK kinase inhibitors” (AGV Discovery, priority 2022, dated 2023).

Legend:
ERK2 (MAPK1) = target: T1, ERK2 (MAPK1) (Homo sapiens, UniProt P28482); test: ERK2 (MAPK1) enzymatic assay (Z′-Lyte); assay type: biochemical
T1 construct: purchased Life technologies
Protocol: To assess the capacity of compounds to inhibit ERK2 enzymatic activity, Z′-Lyte biochemical assay from Life technologies was used according to manufacturer's instructions. Briefly, black 384-well plates containing 100 nl of 100× compound solution in 100% DMSO, 2.4 μl kinase buffer, 5 μl 2×MAPK1 (ERK2)/Ser/Thr 03 mixture and 2.5 μl 4×ATP solution were used. Plates were shaken for 30 seconds and incubated for 60 minutes at room temperature. Then, 5 μl of a 1:1024 dilution of Development Reagent A was added. Plates were shaken for 30 seconds and incubated for 60 minutes at room temperature. A plate reader was used to read fluorescence. […] Kinase buffer consisted of 50 mM HEPES pH 7.5, 0.01% BRIJ-35, 10 mM MgCl2, 1 mM EGTA.

58 kinases = test: Kinase panel (Z′-Lyte, Adapta/Lanthascreen), 58 kinases; assay type: biochemical; details: for Kinase panel @500 nM hits > 50%: number of the 58 kinases inhibited more than 50% at 500 nM; for Kinase panel @500 nM hits > 80%: number of the 58 kinases inhibited more than 80% at 500 nM
Protocol: To assess the kinase selectivity of compounds, Z′-Lyte biochemical assay, and Adapta/Lanthascreen binding assays from Life technologies were used according to manufacturer's instructions. Pourcentages of inhibition at 500 nM of test compounds were performed towards 58 kinases: ABL1, ACVR1B (ALK4), AKT2 (PKB beta), AMPK (A1/132/G3), AURKA (Aurora A), AXL, BRAF, BTK, CAMK2B (CaMKII beta), CDK2/cyclin A, CHEK1 (CHK1), CLK1, CSNK1A1 (CK1 alpha 1), CSNK2A1 (CK2 alpha 1), DAPK3 (ZIPK), DYRK1A, EGFR (ErbB1), EPHB3, ERBB2 (HER2), FGFR2, FLT3, FRAP1 (mTOR), GSK3B (GSK3 beta), IGF1R, IKBKB (IKK beta), INSR, IRAK4, JAK2, KDR (VEGFR2), KIT, LCK, MAP2K1 (MEK1), MAPK10 (JNK3), MAPK11 (p38 beta), MAPKAPK2, MARK2, MET (cMet), NEK2, NTRK1 (TRKA), PAK2 (PAK65), PDGFRB (PDGFR beta), PDK1 Direct, PHKG2, PIK3CA/PIK3R1 (p110 alpha/p85 alpha), PIM1, PLK1, PRKACA (PKA), PRKCA (PKC alpha), PTK2 (FAK), RET, ROCK1, RPS6KA1 (RSK1), RPS6KB1 (p70S6K), SRC, STK3 (MST2), SYK, TEK (Tie2), TYRO3 (RSE).

[1] = system: A375 cells (malignant melanoma); test: Cell line proliferation assay (MTT, A375); assay type: cell-based; details: Homo sapiens, A-375, 72 hours
Protocol: A cell line assay was used to determine the capacity of compounds to inhibit cell proliferation. A375 cells (malignant melanoma) were grown to near 80% confluence and seeded at 3000 cells per 100 μl per well in DMEM with 10% FBS in 96-well flat bottom plates. Cells were incubated for 24 hours at 37° C. under 5% CO2. 100 μl compound solutions were added to cells and incubated for 72 hours at 37° C. Total volume of media was 200 μl per well. Compounds were screened in 0.15% DMSO (final) using 10 titration points in duplicate. Negative control wells consisted of vehicle only (0.15% DMSO in 10% FBS DMEM). After 72 hours of compound treatment, SDS 1% (final) was added to positive control wells for 15 minutes at 37° C. Then, medium was discarded and replaced by 100 μl per well of a MTT solution (3-[4.5-dimethylthiazol-2-yl]-2.5-diphenyltetrazolium bromide) (Sigma, Cat #M5655) at 0.5 mg/ml in 10% FBS DMEM. Cells were incubated for 4 hours at 37° C. MTT reaction was stopped and homogenized by the addition of 100 μl per well of SDS 10% 0.01M HCl. After 16 hours at 37° C., absorbance was measured at 570 nm in a Bio-Tek plate reader (PowerWave HT). […] Analysis was performed using GraphPad Prism software.

T1 sequence (P28482 whole entry): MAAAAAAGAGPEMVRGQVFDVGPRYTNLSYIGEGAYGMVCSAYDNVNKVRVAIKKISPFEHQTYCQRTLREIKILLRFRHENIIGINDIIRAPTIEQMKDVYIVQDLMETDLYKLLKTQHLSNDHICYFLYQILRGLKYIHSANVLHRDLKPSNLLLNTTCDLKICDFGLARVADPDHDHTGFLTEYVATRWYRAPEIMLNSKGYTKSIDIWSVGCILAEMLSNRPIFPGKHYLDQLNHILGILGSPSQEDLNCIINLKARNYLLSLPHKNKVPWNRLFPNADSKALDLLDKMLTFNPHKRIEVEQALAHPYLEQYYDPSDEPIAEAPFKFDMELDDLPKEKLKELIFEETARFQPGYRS

Structure (SMILES)	IC50 [1] [nM]	also measured
CN(C)CC(c1cc(F)cc(Cl)c1)n1ccc(-c2c[nH]c3ncc(N4CCOCC4)cc23)cc1=O (racemic) [Compound no9 (racemate), 1-(1-(3-Chloro-5-fluorophenyl)-2-(dimethylamino)ethyl)-4-(5-morpholino-1H-pyrrolo[2,3-b]pyridin-3-yl)pyridin-2(1H)-one]		IC50 (ERK2 (MAPK1)): 7.7 nM
CN(C)CC(c1cc(F)cc(I)c1)n1ccc(-c2c[nH]c3ncc(N4CCOCC4)cc23)cc1=O (racemic) [Compound no10 (racemate), 1-(2-(dimethylamino)-1-(3-fluoro-5-iodophenyl)ethyl)-4-(5-morpholino-1H-pyrrolo[2,3-b]pyridin-3-yl)pyridin-2(1H)-one]		IC50 (ERK2 (MAPK1)): 5.1 nM
NC[C@H](c1cccc(Cl)c1)n1ccc(-c2c[nH]c3ncc(N4CCOCC4)cc23)cc1=O [Comparative compound A (S), (S)-1-(2-amino-1-(3-chlorophenyl)ethyl)-4-(5-morpholino-1H-pyrrolo[2,3-b]pyridin-3-yl)pyridin-2(1H)-one, reference compound]		Kinase panel @500 nM hits > 50% (58 kinases): 26/58; Kinase panel @500 nM hits > 80% (58 kinases): 15/58
CNC[C@H](c1ccc(Cl)c(Cl)c1)n1ccc(-c2c[nH]c3ncc(N4CCOCC4)cc23)cc1=O [Comparative compound B (S), (S)-1-(1-(3,4-dichlorophenyl)-2-(methylamino)ethyl)-4-(5-morpholino-1H-pyrrolo[2,3-b]pyridin-3-yl)pyridin-2(1H)-one, reference compound]		Kinase panel @500 nM hits > 50% (58 kinases): 20/58; Kinase panel @500 nM hits > 80% (58 kinases): 10/58
CN(C)C[C@H](c1cccc(I)c1)n1ccc(-c2c[nH]c3ncc(N4CCOCC4)cc23)cc1=O [Compound no6 (S), (S)-1-(2-(dimethylamino)-1-(3-iodophenyl)ethyl)-4-(5-morpholino-1H-pyrrolo[2,3-b]pyridin-3-yl)pyridin-2(1H)-one]	42	IC50 (ERK2 (MAPK1)): 2.4 nM
CN(C)C[C@H](c1cc(F)cc(Cl)c1)n1ccc(-c2c[nH]c3ncc(N4CCOCC4)cc23)cc1=O [Compound no9 (S), (S)-1-(1-(3-chloro-5-fluorophenyl)-2-(dimethylamino)ethyl)-4-(5-morpholino-1H-pyrrolo[2,3-b]pyridin-3-yl)pyridin-2(1H)-one]	188	
CN(C)C[C@H](c1cc(F)cc(I)c1)n1ccc(-c2c[nH]c3ncc(N4CCOCC4)cc23)cc1=O [Compound no10 (S), (S)-1-(2-(dimethylamino)-1-(3-fluoro-5-iodophenyl)ethyl)-4-(5-morpholino-1H-pyrrolo[2,3-b]pyridin-3-yl)pyridin-2(1H)-one]	116	
CN(CC(F)F)C[C@H](c1cccc(Cl)c1)n1ccc(-c2c[nH]c3ncc(N4CCOCC4)cc23)cc1=O [Compound no11 (S), (S)-1-(1-(3-chlorophenyl)-2-((2,2-difluoroethyl)(methyl)amino)ethyl)-4-(5-morpholino-1H-pyrrolo[2,3-b]pyridin-3-yl)pyridin-2(1H)-one]	229	
CN(CC#N)C[C@H](c1cccc(Cl)c1)n1ccc(-c2c[nH]c3ncc(N4CCOCC4)cc23)cc1=O [Compound no12 (S), (S)-2-((2-(3-chlorophenyl)-2-(4-(5-morpholino-1H-pyrrolo[2,3-b]pyridin-3-yl)-2-oxopyridin-1(2H)-yl)ethyl)(methyl)amino)acetonitrile]	7	
COCCN(C)C[C@H](c1cccc(Cl)c1)n1ccc(-c2c[nH]c3ncc(N4CCOCC4)cc23)cc1=O [Compound no13 (S), (S)-1-(1-(3-chlorophenyl)-2-((2-methoxyethyl)(methyl)amino)ethyl)-4-(5-morpholino-1H-pyrrolo[2,3-b]pyridin-3-yl)pyridin-2(1H)-one]	262	
CN(C[C@H](c1cccc(Cl)c1)n1ccc(-c2c[nH]c3ncc(N4CCOCC4)cc23)cc1=O)C1CC1 [Compound no14 (S), (S)-1-(1-(3-chlorophenyl)-2-(cyclopropyl(methyl)amino)ethyl)-4-(5-morpholino-1H-pyrrolo[2,3-b]pyridin-3-yl)pyridin-2(1H)-one]	420	
CCN(C)C[C@H](c1cccc(Cl)c1)n1ccc(-c2c[nH]c3ncc(N4CCOCC4)cc23)cc1=O [Compound no15 (S), (S)-1-(1-(3-chlorophenyl)-2-(ethyl(methyl)amino)ethyl)-4-(5-morpholino-1H-pyrrolo[2,3-b]pyridin-3-yl)pyridin-2(1H)-one]	51	IC50 (ERK2 (MAPK1)): 3.5 nM
CN(CC1CC1)C[C@H](c1cccc(Cl)c1)n1ccc(-c2c[nH]c3ncc(N4CCOCC4)cc23)cc1=O [Compound no16 (S), (S)-1-(1-(3-chlorophenyl)-2-((cyclopropylmethyl)(methyl)amino)ethyl)-4-(5-morpholino-1H-pyrrolo[2,3-b]pyridin-3-yl)pyridin-2(1H)-one]	162	
CN(C)C[C@H](c1ccc(F)c(F)c1)n1ccc(-c2c[nH]c3ncc(N4CCOCC4)cc23)cc1=O [Compound no17 (S), (S)-1-(1-(3,4-difluorophenyl)-2-(dimethylamino)ethyl)-4-(5-morpholino-1H-pyrrolo[2,3-b]pyridin-3-yl)pyridin-2(1H)-one]	103	IC50 (ERK2 (MAPK1)): 2.7 nM
CN(C)C[C@H](c1cc(F)cc(F)c1)n1ccc(-c2c[nH]c3ncc(N4CCOCC4)cc23)cc1=O [Compound no18 (S), (S)-1-(1-(3,5-difluorophenyl)-2-(dimethylamino)ethyl)-4-(5-morpholino-1H-pyrrolo[2,3-b]pyridin-3-yl)pyridin-2(1H)-one]	371	
CN(C)C[C@H](c1cccc(Cl)c1)n1cc(F)c(-c2c[nH]c3ncc(N4CCOCC4)cc23)cc1=O [Compound no19 (S), (S)-1-(1-(3-chlorophenyl)-2-(dimethylamino)ethyl)-5-fluoro-4-(5-morpholino-1H-pyrrolo[2,3-b]pyridin-3-yl)pyridin-2(1H)-one]	303	
Cc1cc(-c2c[nH]c3ncc(N4CCOCC4)cc23)cc(=O)n1[C@H](CN(C)C)c1cccc(Cl)c1 [Compound no20 (S), (S)-1-(1-(3-chlorophenyl)-2-(dimethylamino)ethyl)-6-methyl-4-(5-morpholino-1H-pyrrolo[2,3-b]pyridin-3-yl)pyridin-2(1H)-one]	825	
CN(C)C[C@H](c1cccc(Cl)c1)n1ccc(-c2c[nH]c3ncc(N4CCOC(C(F)(F)F)C4)cc23)cc1=O (stereo partly drawn) [Compound no21 (S), 1-((S)-1-(3-chlorophenyl)-2-(dimethylamino)ethyl)-4-(5-(2-(trifluoromethyl)morpholino)-1H-pyrrolo[2,3-b]pyridin-3-yl)pyridin-2(1H)-one]	199	
O=c1cc(-c2c[nH]c3ncc(N4CCOCC4)cc23)ccn1[C@H](CN1CC1)c1cccc(Cl)c1 [Compound no24 (S), (S)-1-(2-(aziridin-1-yl)-1-(3-chlorophenyl)ethyl)-4-(5-morpholino-1H-pyrrolo[2,3-b]pyridin-3-yl)pyridin-2(1H)-one]	96	
CN(C)C[C@H](c1cccc(C#N)c1)n1ccc(-c2c[nH]c3ncc(N4CCOCC4)cc23)cc1=O [Compound no25 (S), (S)-3-(2-(dimethylamino)-1-(4-(5-morpholino-1H-pyrrolo[2,3-b]pyridin-3-yl)-2-oxopyridin-1(2H)-yl)ethyl)benzonitrile]	156	
CN(C)C[C@H](c1cccc(C(F)(F)F)c1)n1ccc(-c2c[nH]c3ncc(N4CCOCC4)cc23)cc1=O [Compound no26 (S), (S)-1-(2-(dimethylamino)-1-(3-(trifluoromethyl)phenyl)ethyl)-4-(5-morpholino-1H-pyrrolo[2,3-b]pyridin-3-yl)pyridin-2(1H)-one]	15	
